Source: PMC8762250, “Identification of Novel Chemical Scaffolds that Inhibit the Growth of Mycobacterium tuberculosis in Macrophages” (Frontiers in Pharmacology, 2022)
In brackets after ≈: the same amount, converted by molar mass. Where two headings read alike, the source gives them in different places. Marks after values point to notes of the source that are not given here.

Key:
[1] = test system: RAW264.7 cells; assay: Macrophage viability in the same high content assay; conditions: for Intracellular RAW TC50 / Intracellular activity Cytotoxicity TC50: infected RAW264.7 macrophages; for Intracellular RAW TC50: SAR tables 4-8; for Intracellular activity Cytotoxicity TC50: 72 h; for selectivity index (SI): HepG2 cells and/or macrophages, cell line not specified; for selectivity index (TC50/IC50): macrophage TC50 / intracellular IC50
[2] = test system: RAW264.7 cells
[3] = test system: M. tuberculosis; assay: Minimum inhibitory concentration in liquid medium (axenic culture); format: cell-based, Mycobacterium tuberculosis; conditions: for IC50: read-out: Anti-tubercular activity in axenic culture IC50
[4] = HepG2 cytotoxicity (CellTiter-Glo, 72 h); format: cell-based, human; conditions: human
Procedure: (§1) Cytotoxicity against HepG2 cells was measured after 72 h. Cells were seeded in 384-well plates at 1,800 cells per well. Compounds were added as a 10-point three-fold serial dilution after 24 h (final assay concentration of 1% DMSO). CellTiter-Glo® reagent (Promega) was added and relative luminescence units (RLU) measured. Data were normalized to the DMSO controls. Curves were fitted using the Levenberg–Marquardt algorithm; TC50 was calculated as the compound concentration required to reduce cell viability by 50%.
(§2) We further evaluated cytotoxicity using the HepG2 cell line cultured with either glucose or galactose in the medium (Table 2). HepG2 cells cultured with galactose rely on mitochondrial oxidative phosphorylation rather than glycolysis which increases their susceptibility to mitochondrial toxicants allowing us to identify compounds with mitochondrial toxicity ([Kamalian et al., 2015]).

[5] = test system: M. tuberculosis; assay: High content assay of intracellular M. tuberculosis growth in infected RAW264.7 macrophages; format: cell-based, Mycobacterium tuberculosis H37Rv-LP
Procedure: Compounds were obtained in 384-well plates as 10 mM DMSO stock solutions and tested as described ([Manning et al., 2017]). Briefly, assay plates were prepared in clear bottom, black 384-well plates with 30 μl cRPMI and 0.6 μl compound in columns 3–22 (final concentration of 10 μM compound, 1% DMSO). […] INH and STA were also included in dose response on each plate. RAW264.7 cells were infected with M. tuberculosis DREAM8 as described ([Manning et al., 2017]) at an MOI of 1 for 24 h and extracellular bacteria removed by washing. Cells were recovered using Accumax, harvested, washed and resuspended in serum-free RPMI; 30 μl of infected cells were dispensed into each well at 3,300 cells/well. Plates were incubated for 72 h, 10 μl of 5X SYBR Green I was added and plates were imaged with an ImageXpress Micro High Content Screening System (Molecular Devices) using a ×4 objective and FITC and Texas Red channels. MetaXpress was used to analyze images. The integrated intensity of M. tuberculosis or macrophages was calculated for each well. Growth inhibition was calculated for each test well by normalizing to the average integrated intensity of the DMSO control wells. IC50 was calculated as the compound concentration required to reduce bacterial growth by 50%. TC50 was calculated as the compound concentration required to reduce macrophage viability by 50%.

[6] = test system: HepG2 cells; assay: HepG2 cytotoxicity (CellTiter-Glo, 72 h); format: cell-based, human; conditions: for HepG2 cytotoxicity TC50 Galactose / HepG2 cytotoxicity TC50 Glucose: human, 72 h; for selectivity (SI) for HepG2: HepG2 cytotoxicity / intracellular IC50
Procedure: as §1, §2

[7] = test system: M. tuberculosis; set-up: method as in PMID 30466326; conditions: inhibitor of M. tuberculosis ref 20; cited from earlier work
[8] = test system: non-replicating M. tuberculosis; set-up: method as in Christophe et al., 2009; conditions: ref Christophe et al., 2009; cited from earlier work
[9] = Mycobacterium tuberculosis, axenic culture, SAR tables 4-8, read-out: Extracellular IC90
[10] = HepG2 cytotoxicity IC50 Galactose
[11] = HepG2 cytotoxicity IC50 Glucose
[12] = Mycobacterium tuberculosis, 120 h, extracellular, 5 days, OD590
[13] = Mycobacterium tuberculosis, 120 h, extracellular, 5 days, OD590, read-out: Anti-tubercular activity in axenic culture IC90
[14] = Mycobacterium tuberculosis, RAW264.7, 72 h, M. tuberculosis in RAW264.7 cells, MOI 1, 72 h, read-out: Intracellular activity Anti-tubercular activity IC50
[15] = Mycobacterium tuberculosis, RAW264.7, in RAW264.7 macrophages, SAR tables 4-8, read-out: Intracellular Mtb IC50
[16] = Mycobacterium tuberculosis, RAW264.7, read-out: Intracellular Mtb IC50, in RAW264.7 macrophages, SAR tables 4-8

| Structure (SMILES) | Intracellular RAW TC50 [1] | IC90 [3, 9] | IC50 at 72 h [4, 10] | IC50 at 72 h [4, 11] | Intracellular activity Cytotoxicity TC50 [1] | IC50 [3, 12] | IC90 [3, 13] | IC50 [5, 14] | IC50 [5, 15] | HepG2 cytotoxicity TC50 Galactose [6] | HepG2 cytotoxicity TC50 Glucose [6] | selectivity index (TC50/IC50) [1] | other results |
| --- | --- | --- | --- | --- | --- | --- | --- | --- | --- | --- | --- | --- | --- |
| O=C(Nc1ccc(Cl)cc1)Nc1ccc(Nc2ccccc2)cc1 [TPN-0073077] | 68 ± 23 ^b µM | > 20 µM | > 100 µM | > 100 µM | – | – | – | – | – | – | – | – | cytotoxicity to macrophages [2]: cytotoxic |
| OCc1cn(-c2ccc(F)cc2)nc1-c1cc(F)c(Cl)cc1Cl [TPN-0073565] | >100 ^d µM | > 20 µM | 43 ± 2.3 µM | 46 ± 2.8 µM | >100 ^d µM | 18.5 µM | > 20 µM | 7 ± 1.8 µM | 7 ± 1.8 µM | 43 ± 2.1 ^d µM | 46 ± 2.8 ^e µM | – | IC50 ([3]; extracellular, 5 days, OD590): > 20 µM |
| O=C(Nc1ccc(Cl)c(Cl)c1)c1cccs1 [TPN-0073578] | 11 ± 2.2 ^c µM | > 20 µM | 4.7 ± 0.5 µM | 3.9 ± 1.1 µM | 11 ± 2.2 ^d µM | > 20 µM | > 20 µM | 1.7 ± 0.85 µM | – | 4.7 ± 0.54 ^c µM | 3.9 ± 1.1 ^c µM | – | IC50 ([5]; in RAW264.7 macrophages, SAR tables 4-8, listed as 27, read-out: Intracellular Mtb IC50): < 5 µM |
| COc1ccc(OCC(=O)Nc2sc3c(c2C(=O)NC2CCS(=O)(=O)C2)CCCC3)cc1 (stereo not shown) [TPN-0073584] | >100 ^c µM | > 20 µM | > 100 µM | > 100 µM | >100 ^b µM | > 20 µM | > 20 µM | 5.1 ± 1.7 µM | 5.1 ± 1.7 µM | >100 ^c µM | >100 ^c µM | – | selectivity index (SI) [1]: > 10; selectivity (SI) for HepG2 [6]: 20 |
| CCOc1ccc(NC(=S)Nc2ccc(C)c(C#N)c2)cc1 [TPN-0073063] | 47 ± 28 ^g µM | 9.5 ± 3.2 µM | 35 ± 6.6 µM | 64 ± 40 µM | 47 ± 28 ^f µM | 5 ± 1.5 µM | 9.5 ± 3.2 µM | 0.25 ± 0.23 µM | – | 34 ± 6.5 ^e µM | 40 ± 11 ^e µM | > 150 | IC50 [5, 16]: 0.3 ± 0.2 µM |
| O=C(CSc1ccc(Cl)cc1)Nc1ccc(F)c(Cl)c1 [TPN-0006216] | >100 ^b µM | > 20 µM | 33 ± 4 µM | 44 ± 2 µM | >100 ^d µM | > 20 µM | > 20 µM | 2.8 ± 0.78 µM | 2.4 ± 0.5 µM | 33 ± 4 ^b µM | 44 ± 2 ^b µM | > 42 | Intracellular RAW TC50 ([1]; listed as 12): > 100 µM; IC90 [7]: 6.9 µg/mL (≈ 20.9 µM); activity against intracellular M. tuberculosis [5]: good intracellular activity |
| CCc1ccccc1NC(=O)c1c(NC(=O)c2cccc(Cl)c2)sc2c1CCC2 [TPN-0073585] | 9.4 ± 1.9 ^c µM | > 5 µM | > 25 µM | > 25 µM | 9.4 ± 1.9 ^c µM | > 5 µM | > 5 µM | 0.4 ± 0.11 µM | – | >25 ^c µM | >25 ^c µM | – | selectivity index (SI) [1]: > 10; IC50 ([5]; in RAW264.7 macrophages, SAR tables 4-8, listed as 29, read-out: Intracellular Mtb IC50): < 5 µM; selectivity (SI) for HepG2 [6]: > 60 |
| O=C(CSc1ccccc1)Nc1ccc(Br)cc1 [TPN-0006205] | 57 ± 24 ^c µM | > 20 µM | > 100 µM | > 100 µM | 57 ± 23 ^c µM | > 20 µM | > 20 µM | 1.4 ± 0.64 µM | 1.4 ± 0.6 µM | >100 ^c µM | >100 ^e µM | 40 | activity against intracellular M. tuberculosis [5]: good intracellular activity |
| Cc1cc(C)nc(NC(=N)Nc2ccc(Br)cc2)n1 [TPN-0073061] | 18 ± 4.3 ^d µM | 8.2 ± 0.1 µM | 22 ± 3.1 µM | 212 ± 4 µM | 18 ± 4.3 ^d µM | 6.3 ± 0.15 µM | 8.2 ± 0.1 µM | 1.3 ± 0.15 µM | – | 22 ± 3.1 ^c µM | 22 ± 4.0 ^c µM | 14 | IC50 [5, 16]: 1.3 ± 0.1 µM |
| Cc1ccc(SCC(=O)Nc2ccc(Br)c(C)c2)cc1 [TPN-0006207] | >100 ^b µM | > 20 µM | > 100 µM | > 100 µM | >100 ^b µM | > 20 µM | > 20 µM | 6.3 ± 0.3 µM | 6.3 ± 0.3 µM | >100 ^b µM | >100 ^b µM | – | activity against intracellular M. tuberculosis [5]: good intracellular activity |
| Cc1ccc(OCC(=O)N2CCCc3ccccc32)cc1 [TPN-0006208] | 86 ± 1.0 ^b µM | > 20 µM | > 100 µM | > 100 µM | – | – | – | – | 13 µM | – | – | – | activity against non-replicating M. tuberculosis [8]: had activity |
